The target in series [1] is Sphingosine 1-phosphate receptor 1 (Homo sapiens, UniProt P21453). In words: Agonist activity at S1P1 receptor by Tango assay. It counts as functional.
In series [2] the target is Sphingosine 1-phosphate receptor 3 (Homo sapiens, UniProt Q99500). In words: Agonist activity at human S1P3 receptor assessed as Ca2+ mobilization by GeneBLAzer assay. It counts as functional.
Series [3] deals with Mus musculus. In words: Immunosuppressive activity in naive B6 mouse assessed as peripheral lymphocytes at 1 mg/kg, po at 4 hrs relative to control. It counts as functional.
The test system of series [4] is Mus musculus. In words: Immunosuppressive activity in naive B6 mouse assessed as peripheral lymphocytes at 1 mg/kg, po at 24 hrs relative to control. The series is classed as functional.
Series [5] is described as follows: Ratio of drug level in brain to blood in mouse at 2 mg/kg, ip at 1 hr. The series is classed as ADME, organism-based. Also noted: dose 2 mg/kg, route intraperitoneal. To be noted: brain and blood.
A short description of series [6]: Ratio of drug level in brain to blood in mouse at 2 mg/kg, ip at 2 hrs. The series is classed as ADME, organism-based. On the set-up: dose 2 mg/kg, route intraperitoneal. To be noted: brain and blood.
A short description of series [7]: Ratio of drug level in brain to blood in mouse at 2 mg/kg, ip at 4 hrs. The settings on record: brain and blood. On the set-up: dose 2 mg/kg, route intraperitoneal. It counts as ADME, organism-based.
A short description of series [8]: Clearance in C57BL/6 mouse blood at 1 mg/kg, iv and 2 mg/kg, po. The series is classed as ADME, organism-based.
A short description of series [9]: Volume of distribution at steady state in C57BL/6 mouse blood at 1 mg/kg, iv and 2 mg/kg, po. It counts as ADME, organism-based. To be noted: read-out: Vdss.
Series [10] is described as follows: Cmax in C57BL/6 mouse blood at 1 mg/kg, iv and 2 mg/kg, po. It counts as ADME, organism-based.
The nature of series [11]: Terminal half life in C57BL/6 mouse blood at 1 mg/kg, iv and 2 mg/kg, po. To be noted: read-out: beta t1/2 (converted). The series is classed as ADME, organism-based.
Series [12] is described as follows: Oral bioavailability in C57BL/6 mouse blood at 2 mg/kg. The series is classed as ADME, organism-based.
The species named for series [13] is Mus musculus. In words: Immunosuppressive activity in C57BL/6 mouse autoimmune encephalomyelitis model assessed as efficacy relative to fingolimod. It counts as functional, organism-based.

What is called EC50 is the concentration giving half of the maximal effect. As usually defined, the Kp is tissue or fluid exposure divided by exposure in the circulation. Broadly, the Cmax is the maximum level reached in the sampled fluid or tissue. In general, bioavailability refers to the share of a dose that reaches the circulation, judged against a reference dose that is usually intravenous. Low readings indicate poor availability, high ones good availability.

Calls of active or inactive are those of the source. No cut-off for these calls is given here.

Sequence of Sphingosine 1-phosphate receptor 1 (P21453 whole entry): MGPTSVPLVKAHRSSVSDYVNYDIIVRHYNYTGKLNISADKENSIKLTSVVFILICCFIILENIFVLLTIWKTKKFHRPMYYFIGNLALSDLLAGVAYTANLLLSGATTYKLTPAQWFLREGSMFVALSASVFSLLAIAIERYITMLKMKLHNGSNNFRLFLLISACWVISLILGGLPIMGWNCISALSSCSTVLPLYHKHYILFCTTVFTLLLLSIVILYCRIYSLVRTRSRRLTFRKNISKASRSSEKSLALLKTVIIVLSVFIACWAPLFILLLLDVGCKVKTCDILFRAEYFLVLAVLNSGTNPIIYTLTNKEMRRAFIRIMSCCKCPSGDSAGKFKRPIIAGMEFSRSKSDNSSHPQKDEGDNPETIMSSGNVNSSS
Sequence of Sphingosine 1-phosphate receptor 3 (Q99500 whole entry): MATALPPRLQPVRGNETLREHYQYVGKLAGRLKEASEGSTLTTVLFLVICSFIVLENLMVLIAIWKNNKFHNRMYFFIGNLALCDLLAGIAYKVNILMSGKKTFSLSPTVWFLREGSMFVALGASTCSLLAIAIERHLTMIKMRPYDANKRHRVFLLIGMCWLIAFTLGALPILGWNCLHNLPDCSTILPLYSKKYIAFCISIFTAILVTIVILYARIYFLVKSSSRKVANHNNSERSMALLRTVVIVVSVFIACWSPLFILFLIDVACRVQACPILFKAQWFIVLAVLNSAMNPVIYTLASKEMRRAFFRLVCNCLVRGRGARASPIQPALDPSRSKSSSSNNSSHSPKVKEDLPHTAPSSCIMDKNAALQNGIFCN

Take `CC(C)Oc1ccc(-c2nc(-c3cc(F)cc4c(CCC(=O)O)cn(C)c34)no2)cc1Cl`: the EC50 in [1] is < 0.01 nM; in series [2] it was > 10000 nM.

Consider `COc1ccc(-c2nc(-c3cccc4c(CCC(=O)O)c[nH]c34)no2)cc1OC`, for which the values for the EC50 in series [1] and in [2] were 1260 nM and > 10000 nM, respectively.

Take `CC(C)Oc1ccc(-c2nc(-c3cccc4c(C(=O)O)c[nH]c34)no2)cc1Cl`: the 50% effective concentration (EC50) is 5.01 nM in series [1] and > 10000 nM in series [2].

Consider `CC(C)Oc1ccc(-c2nc(-c3ccc4[nH]c(CCC(=O)O)cc4c3)no2)cc1Cl`, for which the EC50 in series [1] is 0.2 nM; in [2], > 10000 nM.

With `CC(C)Oc1ccc(-c2nc(-c3ccc4ccn(CCC(=O)O)c4c3)no2)cc1Cl`, the concentration giving a half-maximal response (EC50) was 398 nM in [1] and > 10000 nM in [2].

`O=C(O)CCc1c[nH]c2c(-c3noc(-c4ccc5c(c4)OCCO5)n3)cccc12`: the concentration giving a half-maximal response (EC50) in [1] was > 3160 nM; in [2], > 10000 nM.

On to `CC(C)Oc1ncc(-c2nc(-c3cccc4c(CCC(=O)O)c[nH]c34)no2)cc1C(F)(F)F`, for which the 50% effective concentration (EC50) in series [1] was 0.251 nM; in [2], > 10000 nM.

Regarding `O=C(O)CCc1c[nH]c2c(-c3noc(-c4ccc(Cl)cc4)n3)cccc12`, the results for the EC50 in series [1] and in series [2] were 3160 nM and > 10000 nM, respectively.

On to `CC(C)Oc1ccc(-c2nc(-c3cccc4c(CCc5nnn[nH]5)c[nH]c34)no2)cc1Cl`, for which the values for the EC50 in series [1] and in [2] were 0.0794 nM and > 10000 nM, respectively.

On to `CCCn1cc(CCC(=O)O)c2cccc(-c3noc(-c4ccc(OC(C)C)c(Cl)c4)n3)c21`, for which the concentration giving a half-maximal response (EC50) in series [1] was 200 nM; in series [2], > 10000 nM.

Regarding `CC(C)Oc1ccc(-c2nc(-c3cccc4c(CC(=O)O)c[nH]c34)no2)cc1Cl`, the results for the concentration for a half-maximal effect (EC50) in series [1] and in series [2] were 39.8 nM and > 10000 nM, respectively.

As for `CC(C)Oc1ccc(-c2nc(-c3cccc4c(CCC(=O)O)cn(C(C)C)c34)no2)cc1Cl`, the figures for the EC50 in [1] and in series [2] were 20 nM and > 10000 nM, respectively.

For `CNC(=O)CCc1c[nH]c2c(-c3noc(-c4ccc(OC(C)C)c(Cl)c4)n3)cccc12`, the EC50 in [1] was 0.0398 nM; in [2] it was > 10000 nM.

Regarding `CC(C)Oc1ccc(-c2nc(-c3cccc4c(CCCCC(=O)O)c[nH]c34)no2)cc1Cl`, the 50% effective concentration (EC50) is 0.0501 nM in [1] and > 10000 nM in [2].

On to `CC1(C)Oc2ccc(-c3nc(-c4cccc5c(CCC(=O)O)c[nH]c45)no3)cc2O1`, for which the EC50 in [1] is 398 nM; in series [2], > 10000 nM.

On to `CC(C)Oc1ccc(-c2nc(-c3ccc(F)c4c(CCC(=O)O)cn(C)c34)no2)cc1Cl`, for which the EC50 in series [1] is < 0.01 nM; in series [2], > 10000 nM. Moreover, the results for the Activity in series [3] and in series [4] were 21% and 114%, respectively. Also, in series [5], the Kp at 1 h turned out to be 0.35. Also, in series [6], the Kp at 2 h was found to be 0.48. The Kp at 4 h in [7] was 0.48. Besides, in series [8], the clearance is 3.22 mL/min/kg. For the same compound, in series [9], the Vd stood at 0.84 L/kg. This compound gave a peak concentration (Cmax) in series [10] of 1700 ng/mL. Further, the half-life in series [11] is 3.83 h. Moreover, the bioavailability in series [12] worked out at 100%. Moreover, the Efficacy result in series [13] was “Active”.

Turning to `CC(C)Oc1ccc(-c2nc(-c3ccc4c(CCC(=O)O)c[nH]c4c3)no2)cc1Cl`, the EC50 in [1] is 0.251 nM; in [2] it was > 10000 nM.

As for `CCn1cc(CCC(=O)O)c2cccc(-c3noc(-c4ccc(OC(C)C)c(Cl)c4)n3)c21`, the values for the 50% effective concentration (EC50) in series [1] and in series [2] were 0.316 nM and > 10000 nM, respectively.

For `CC(C)Oc1ccc(-c2nc(-c3cccc4c(CCC(N)=O)c[nH]c34)no2)cc1Cl`, the 50% effective concentration (EC50) in series [1] is 0.0316 nM; in series [2] it was > 10000 nM.

As for `O=C(O)CCc1c[nH]c2c(-c3noc(C4CCCCC4)n3)cccc12`, the EC50 in series [1] and in series [2] was > 10000 nM in each case.

In the case of `COc1ccc(-c2noc(-c3ccc(OC(C)C)c(Cl)c3)n2)c2c1c(CCC(=O)O)cn2C`, the values for the EC50 in [1] and in [2] were 6.31 nM and > 10000 nM, respectively.

As for `CCOc1ccc(-c2nc(-c3cccc4c(CCC(=O)O)c[nH]c34)no2)cc1OCC`, the 50% effective concentration (EC50) in [1] is 3.16 nM; in series [2], > 10000 nM.

In the case of `COc1cc(-c2nc(-c3cccc4c(CCC(=O)O)c[nH]c34)no2)cnc1OC(C)C`, the figures for the EC50 in series [1] and in series [2] were 100 nM and > 10000 nM, respectively.

Turning to `CC(C)Oc1ccc(-c2nc(-c3c(F)ccc4c(CCC(=O)O)cn(C)c34)no2)cc1Cl`, the EC50 in [1] is 25.1 nM; in [2], > 10000 nM.

As to `CC(C)Oc1ccc(-c2nc(-c3cccc4c(CCC(=O)O)cn(C)c34)no2)cc1Cl`, the EC50 in [1] was 0.00631 nM; in [2], > 10000 nM.

For the compound `CC(C)Oc1ccc(-c2nc(-c3cccc4c(CCCC(=O)O)c[nH]c34)no2)cc1Cl`, the EC50 in series [1] was 0.398 nM; in series [2], > 10000 nM.

In the case of `Cc1cc(-c2nc(-c3cccc4c(CCC(=O)O)c[nH]c34)no2)cnc1OC(C)C`, the EC50 in [1] was 1.58 nM; in series [2] it was > 10000 nM.

For the compound `CC(C)Oc1ccc(-c2nc(-c3cccc4c(CCC(=O)O)c[nH]c34)no2)cc1Cl`, the values for the 50% effective concentration (EC50) in series [1] and in series [2] were 0.0126 nM and > 10000 nM, respectively.

For the compound `CC(C)Oc1ccc(-c2nc(-c3ccc4c(ccn4CCC(=O)O)c3)no2)cc1Cl`, the results for the EC50 in [1] and in series [2] were 2.51 nM and > 10000 nM, respectively.

Consider `CC(C)Oc1ncc(-c2nc(-c3cccc4c(CCC(=O)O)c[nH]c34)no2)cc1Cl`, for which the EC50 is 0.398 nM in [1] and > 10000 nM in series [2].

In the case of `O=C(O)CCc1c[nH]c2c(-c3noc(C4CCOCC4)n3)cccc12`, the concentration for a half-maximal effect (EC50) in series [1] and in series [2] was > 10000 nM throughout.

Source of the values: ChEMBL document CHEMBL2016540, “Indole-propionic acid derivatives as potent, S1P3-sparing and EAE efficacious sphingosine-1-phosphate 1 (S1P1) receptor agonists” (Bioorg Med Chem Lett, 2012).
